Here are results for one compound from patent publication US4205170A, “Propionic acid derivatives” (priority 1976, dated 1980).

SMILES strings stand for the structures. Read-outs that look alike come from different tables or passages of the source.

This test deals with edema in the hind paws (carrageenan). Description: carrageenan-induced hind paw edema, oral administration. Type of test: in vivo, male Wistar rats. The note with it: Rattus norvegicus; for inhibition in vivo at 5 mg/kg: 5 mg/kg orally; for inhibition in vivo at 10 mg/kg: 10 mg/kg orally. The procedure:
That is, male Wistar rats weighing about 100 g, one group consisting of 5 to 7 animals, were given orally the compounds according to the present invention and then edema was induced in the hind paws by subcutaneous injections of 0.1 ml of 1% carrageenan 1 hour after the administration of the test compounds, and the volumes of the hind paws were measured by a volume differential meter.
In general terms: In the carrageenan paw model, swelling and tenderness develop within hours.

[1] abbreviates: 2 hr, read-out: Inhibition (%) 2 hr.
Where [2] appears, read: 3 hr, read-out: Inhibition (%) 3 hr.
The mark [3] stands for this setting: 4 hr, read-out: Inhibition (%) 4 hr.
Where [4] appears, read: 5 hr, read-out: Inhibition (%) 5 hr.
The mark [5] stands for this setting: 6 hr, read-out: Inhibition (%) 6 hr.

Take `CCCCC1C(=O)N(c2ccccc2)N(c2ccccc2)C1=O` [Phenyl butazone, reference compound]: the inhibition in vivo at 5 mg/kg reads like this: under setting [1], 22.7%; under setting [2], 21.1%; under setting [3], 22.2%; under setting [4], 13.1%; under setting [5], 13.6%. Further, the inhibition in vivo at 10 mg/kg is, setting by setting: (1 hr, read-out: Inhibition (%) 1 hr) 12.4%; under setting [1], 23.7%; under setting [2], 27.4%; under setting [3], 20%; under setting [4], 14.4%; under setting [5], 8.6%.
